Read-outs that look alike come from different tables or passages of the source.
Legend:
Du145 colon carcinoma = assay: cytotoxicity against Du145 colon carcinoma cell line; assay type: cell-based; details: read-out: cytotoxicity IC50, Du145
PP-1 [1] = assay: PP inhibition assay, PP-1; assay type: biochemical; details: triplicate
PP-2A [2] = assay: PP inhibition assay, PP-2A; assay type: biochemical; details: triplicate
[3] = tested on: HT29 colon adenocarcinoma; assay: cytotoxicity against HT29 colon adenocarcinoma cell line; assay type: cell-based; details: read-out: cytotoxicity IC50, HT29; HT29 colon adenocarcinoma
A549 lung adenocarcinoma = assay: cytotoxicity against A549 lung adenocarcinoma cell line; assay type: cell-based; details: read-out: cytotoxicity IC50, A549; A549 lung adenocarcinoma
MCF7 breast carcinoma = assay: cytotoxicity against MCF7 breast carcinoma cell line; assay type: cell-based; details: read-out: cytotoxicity IC50, MCF7; MCF7 breast carcinoma
[4] = cytotoxicity against HT29 colon adenocarcinoma cell line; assay type: cell-based; details: human, HT29 colon adenocarcinoma cells
[5] = cytotoxicity against A549 lung adenocarcinoma cell line; assay type: cell-based; details: human, A549 lung adenocarcinoma cells
[6] = cytotoxicity against MCF7 breast carcinoma cell line; assay type: cell-based; details: human, MCF7 breast carcinoma cells
PP-1 [7] = details: cited from earlier work
PP-2A [8] = details: read-out: IC50 PP-2A; cited from earlier work
[9] = read-out: IC50 PP-1, pH 7.5, pH 7.5
[10] = read-out: IC50 PP-1, pH 8.4, pH 8.4

Q: What does the source list for 3′-deshydroxy-TTM [compound 3]?
A: IC50 (Du145 colon carcinoma): 4240 ± 110 nM; IC50 (PP-1 [1]; [9]): 470 nM; IC50 (PP-1 [1]; [10]): 677 nM; IC50 (PP-2A [2]; read-out: IC50 PP-2A, pH 7.5): 15600 nM; IC50 (PP-2A [2]; read-out: IC50 PP-2A, pH 8.4): 15300 nM; IC50 [3]: 7350 ± 190 nM; IC50 (A549 lung adenocarcinoma): 26600 ± 6400 nM; IC50 (MCF7 breast carcinoma): 15600 ± 900 nM

Q: What does the source list for `CO[C@H]([C@H](O)CC(=O)[C@@H](C)[C@@H](O)CC[C@@H](C)[C@@H]1O[C@]2(CC[C@@H](C)[C@H](CC[C@H](C)C(C)=O)O2)CC[C@@H]1C)[C@H](OC(=O)C[C@@H](O)C1=C(C)C(=O)OC1=O)C(C)C` [compound 1, Tautomycin, reference compound]?
A: IC50 (PP-1 [1]; [9]): 0.58 nM; IC50 (PP-1 [1]; [10]): 0.86 nM; IC50 (PP-2A [2]; read-out: IC50 PP-2A, pH 7.5): 15 nM; IC50 (PP-2A [2]; read-out: IC50 PP-2A, pH 8.4): 42.6 nM; IC50 [4]: 590 ± 10 nM; IC50 [5]: 1660 ± 140 nM; IC50 [6]: 1800 ± 120 nM

Q: With C3′ epi-TTM as the compound, how does the “less effective at PP-1 inhibition than 1” value (PP-1 [7]; relative to 1) read?
A: Its value is ~ 1000 fold.

Q: For tautomycetin [compound 2], which IC50 (PP-2A [8]) is on record?
A: Its IC50 is 62 nM.

Q: What about the “higher affinity for PP-1 than for PP-2A” value (PP-1 [7]; PP-1 over PP-2A) of the same compound?
A: The value was roughly 40 fold.

Q: And the IC50 (PP-1 [7]; read-out: IC50 PP-1)?
A: Its IC50 is 1.6 nM.
